This test has as its system melittin and intact BCaM:melittin complex. Type of test: binding, bovine.

Molecules are shown by their SMILES.

Consider `CN1CCN(CCCN2c3ccccc3Sc3ccc(C(F)(F)F)cc32)CC1` [TFP, trifluoperazine], for which the “Effect on emission wavelength and anisotropy of the intact complex or of melittin” value is reported as “not affected”; the “Effect on intensity of melittin or the intact complex” value is “large decrease in intensity”.

The values above are taken from US7118921B1, “Incorporation and applications of biomolecular interactions within a carrier” (McMaster University, priority 1999, dated 2006).
